{"source": "patent US11472814B2", "about": "“Thienopyranones and furanopyranones as checkpoint inhibitors and modulators of anti-tumor immunity” (SignalRx Pharmaceuticals, Inc., priority 2017, dated 2022)", "key": {"BRD4-2": {"target": "T1, BRD4-2 (Homo sapiens, UniProt O60885)", "T1 construct": "purchased Reaction Biology Corp., Malvern, Pa; (contract assay service)", "experiment": "Bromodomain protein inhibition IC50, binding domain 2 of BRD4 (Reaction Biology Corp.)", "details": "10-point curve", "text": "(§1) The inhibitory activity of a compound of the invention against PI3K and/or BRD4 and/or SYK and/or CDK4/6 can be readily determined using methods known to the skilled artisan, or by commercial vendors offering such services. […] In vivo, PI3K inhibition can be determined from target tissue biopsies by standard tissue processing to disrupt cells and then performing Western Blot analysis to determine the presence or absence of pAKT (substrate of PI3K) relative to a control sample. The activity of a compound of the invention as an inhibitor of a bromodomain-containing protein, such as a BET protein, such as BRD2, BRD3, BRD4, and/or BRDT, or an isoform or mutant thereof, may be determined in vitro, in vivo, or in a cell line. In vitro assays include assays that determine inhibition of bromodomain-containing proteins. Alternatively, inhibitor binding may be determined by running a competition experiment where a provided compound is incubated with a bromodomain-containing protein, such as a BET protein bound to known ligands, labeled or unlabeled. For example, bromodomain inhibition can be determined in vitro using Alpha Screen Technology (http://www.reactionbiologv.com/webapps/site/NewsPDFs/Bromodomain%20Assay %20Platform %20for %20Drug %20Screening %20and %20Discovery.pdf). In vivo bromodomain inhibition can be determined indirectly by evaluating the amount of protein present of proteins whose genes' transcription is influenced or controlled by the bromodomain protein, for example, the MYCN protein transcription is controlled by BRD4 (J. E. Delmore et al., Cell 2011, 146, 904-917; A. Puissant, Cancer Discov. 2013, 3, 308-323). Bromodomain inhibition may also be predicted by in silico modeling as described below in the Examples. Additionally, the company Promega offers a SYK luminescent assay to determine a compound's ability to inhibit the SYK protein (https://www.promega.com/-/media/files/resources/protocols/kinase-enzyme-appnotes/syk-kinase-assay-protocol.pdf?la=en).\n(§2) Compounds of the invention were characterized for their ability to inhibit target proteins using third party vendors offering such services. PI3K alpha, gamma, and delta inhibition activity was determined by Thermo Fisher Scientific-Biosciences Life Sciences Solutions, Madison, Wis. The bromodomain protein inhibition (binding domain 1 and 2 of BRD4) as well as SYK inhibition was determined at Reaction Biology Corp., Malvern, Pa. […] The IC50 data (shown below in Table 5) was calculated from a 10-point curve and is expressed in nanomolar concentration (nM) rounded off to the nearest whole number. […]"}, "[1]": {"system": "tumor associated macrophages (TAMs) from LLC tumors", "experiment": "RT-PCR gene expression in tumor associated macrophages sorted from LLC tumors", "assay_type": "in vivo, mice", "text": "RT-PCR analysis of cDNAs generated from mRNAs reflecting tumor associated macrophages (TAMs) isolated from LLC tumors grown in WT animals and treated with Compound 3. ***p<0.001**p<0.01 and *p<0.05, t test. […] Expression of gene of interest is normalized to GAPDH. […] Statistical significance is accessed by t test. For example, Compound 3 augmented IL1 gene expression in TAMs 8-fold and suppressed Arginase (Arg) 98% in TAMs isolated from LLC tumors in vivo."}, "CT26 tumors": {"system": "CT26 tumors", "experiment": "CT26 tumor growth in immunodeficient NSG mice", "assay_type": "in vivo", "details": "3 mg/kg", "text": "(§3) We investigated the effect of Compound 3 on immune cell in vitro and on tumor growth in in vivo in immunocompetent syngeneic tumor models and the effects on the macrophage and T cell immune compartment in vivo by this compound. […] In order to distinguish whether Compound 3 blocks tumor growth due to its effect on immune cell compartment and not on tumor compartment, we tested the effect of this chemotype on CT26 tumor growth in immunodeficient NSG mice vs immunocompetent Balb/c mice. […] Compound 3 has combinatorial immune-oncologic activity in vivo to stimulate anti-cancer innate and adaptive immunity in well-defined accepted immune competent murine models for cancer immunotherapy.\nConclusion: this establishes effect of Compound 3 as immune-oncologically active agent in cancer immunotherapy. In immunocompetent mice with same tumor cell ino kculum Compound 3 inhibited CT26 tumor growth by 58% decrease in tumor volume. (n=x, p<0.001, t test)."}, "[2]": {"experiment": "LLC tumor growth in immunocompetent WT mice", "assay_type": "in vivo", "details": "CT26, LLC and MC38 in immunocompetent mice", "text": "as §3\nCompound 3: a novel dual Syk/PI3K inhibitory chemotype: Combinatorial inhibition of Syk and PI3K increases anti-tumor innate and adaptive T cell immune response in vivo. Tumor volume of LLC inoculated subcutaneously in WT mice treated with 10 mg/Kg Compound 3 (n=9, ***p<0.0001, t test). Conclusion: Compound 3 suppressed tumor growth of LLC by 68% in this immunocompetent immune-oncology model system as compared to vehicle control treated mice.\nIn contrast to above data, Compound 3 has a marked significant inhibitory effect on CT26, LLC and MC38 tumor growth in immunocompetent murine models. Conclusion: this establishes effect of Compound 3 as immune-oncologically active agent in cancer immunotherapy. […]"}, "BRD4-1": {"target": "T2, BRD4-1 (Homo sapiens, UniProt O60885)", "T2 construct": "purchased Reaction Biology Corp., Malvern, Pa; (contract assay service)", "experiment": "Bromodomain protein inhibition IC50, binding domain 1 of BRD4 (Reaction Biology Corp.)", "details": "10-point curve", "text": "as §1, §2"}, "[3]": {"system": "LLC tumors, Ifng and Gzmb mRNA", "experiment": "mRNA expression of Ifng and Gzmb in LLC tumors", "assay_type": "in vivo, mice", "details": "normalized to GAPDH", "experimental": "Effect of Compound 3 treatment in vivo at 10 mg/kg dose on mRNA expression of interferon (Ifng) gamma and granzyme b (Gzmb) in LLC tumors implanted in vehicle vs Compound 3 treated mice (n=3, biological replicates, p<0.05, t test). Relative gene expression is normalized to a house keeping gene, GAPDH for comparison."}, "[4]": {"details": "LLC tumors in WT animals, vs vehicle"}, "[5]": {"details": "TAMs isolated from LLC tumors in vivo, vs vehicle"}}, "note": "Entries after “also recorded” stand apart in the source; their conditions may differ."}
{"smiles": "Cc1nn(-c2ccnc(Nc3ccc(-c4csc5c(=O)cc(N6CCOCC6)oc45)cc3)n2)cc1CN1CCC1", "note": "[Compound 3, 3-[p-(4-{4-[(1-Azetidinyl)methyl]-3-methyl-1H-pyrazol-1-yl}-2-pyrimidinylamino)phenyl]-5-morpholino-4-oxa-1-thia-7-indenone]", "values": [{"measurement": "IC50", "setting": "BRD4-2", "value": "1000 to 5000", "unit": "nM"}, {"measurement": "expression of immune response genes in TAMs", "setting": "[1]; [4]", "value": "activated the expression of immune response genes"}, {"measurement": "expression of macrophage M2 immunosuppressive genes in TAMs", "setting": "[1]; [4]", "value": "suppressed the expression of macrophage M2 immunosuppressive genes"}, {"measurement": "Nos2 gene expression in macrophages sorted from LLC tumors", "setting": "[1]; TAMs from LLC tumors in treated WT mice, normalized to GAPDH, vehicle 0.95 ± 0.06", "value": "21 ± 0.19"}, {"measurement": "Vegf gene expression in macrophages sorted from LLC tumors", "setting": "[1]; TAMs from LLC tumors in treated WT mice, normalized to GAPDH, vehicle 0.995 ± 0.06", "value": "0.56 ± 0.05"}, {"measurement": "Il1 gene expression in macrophages sorted from LLC tumors", "setting": "[1]; TAMs from LLC tumors in treated WT mice, normalized to GAPDH, vehicle 1.0 ± 0.04", "value": "8.3 ± 1.43"}, {"measurement": "Ifng gene expression in macrophages sorted from LLC tumors", "setting": "[1]; TAMs from LLC tumors in treated WT mice, normalized to GAPDH, vehicle 1 ± 0.3", "value": "3.26 ± 1.04"}, {"measurement": "Il6 gene expression in macrophages sorted from LLC tumors", "setting": "[1]; TAMs from LLC tumors in treated WT mice, normalized to GAPDH, vehicle 1.0 ± 0.3", "value": "1.8 ± 0.16"}, {"measurement": "Tgfb gene expression in macrophages sorted from LLC tumors", "setting": "[1]; TAMs from LLC tumors in treated WT mice, normalized to GAPDH, vehicle 1 ± 0.7", "value": "0.35 ± 0.014"}, {"measurement": "Arg gene expression in macrophages sorted from LLC tumors", "setting": "[1]; TAMs from LLC tumors in treated WT mice, normalized to GAPDH, vehicle 1 ± 0.9", "value": "0.08 ± 0.004"}, {"measurement": "Arginase (Arg) suppression in TAMs", "setting": "[1]; [5]", "value": 98, "unit": "%"}, {"measurement": "IL1 gene expression in TAMs, augmentation", "setting": "[1]; [5]", "value": 8, "unit": "fold"}, {"measurement": "% Growth inhibition", "setting": "CT26 tumors; CT26 tumors in immunodeficient NSG mice, negative = increase in tumor growth", "value": "−33 ± 27", "unit": "%"}, {"measurement": "CT26 tumor growth in NSG mice", "setting": "CT26 tumors; immunodeficient NSG mice", "value": "did not reduce CT26 tumor growth; also recorded: no significant effect"}, {"measurement": "tumor growth inhibition across models", "setting": "[2]", "value": "58-68%"}, {"measurement": "IC50", "setting": "BRD4-1", "value": "1000 to 5000", "unit": "nM"}, {"measurement": "Ifng mRNA expression in LLC tumors", "setting": "[3]; 10 mg/kg in vivo, n=3, vehicle 0.8 ± 0.18", "value": "1.4 ± 0.27,"}, {"measurement": "Gzmb mRNA expression in LLC tumors", "setting": "[3]; 10 mg/kg in vivo, n=3, vehicle 0.87 ± 0.27", "value": "1.87 ± 0.5"}, {"measurement": "expression of Ifng and Gzmb in LLC tumors", "setting": "[3]; 10 mg/kg, vs vehicle", "value": "increased expression of the inflammatory cytokines, Ifng and GzmB; also recorded: increased the expression of immunostimulatory T cell immune effectors"}]}
